Results from patent publication US9879032B2, “Pyridine compounds” (Daiichi Sankyo Company, Limited, priority 2015, dated 2018).

These compounds were tested against human TNAP (Homo sapiens (Human), UniProt P05186) (assay: Inhibitory test of TNAP activity (pNPP substrate, p-nitrophenol production)). Conditions: inhibition of human TNAP activity, incubated at room temperature for 60 minutes.
Type: biochemical
Experimental: COS 1 cells (DS Pharma Biomedical Co., Ltd.) were transfected with human TNAP (OriGene Technologies, Inc.) using Lipofectamine LTX & Plus reagent (Invitrogen Corp.). On the next day, the medium was replaced with a fresh medium, and the cells were cultured in an incubator for 3 days. After 3 days, the culture supernatant was collected and concentrated by centrifugation at 5000 G for 30 minutes using Amicon 14, 10^4 cut (Merck Millipore). The concentrated culture supernatant was dialyzed against 5 L of 50 mM Tris/200 mM NaCl/1 mM MgCl2/20 μM ZnCl2 twice and used as an enzyme source (enzyme solution). The substrate pNPP (ProteoChem Inc.) was adjusted to 3.1 mM with Milli-Q water, and a solution of each test compound dissolved in dimethyl sulfoxide (DMSO; Wako Pure Chemical Industries, Ltd.) by 6 serial dilutions at a 5-fold common ratio from 100 μM, or DMSO was added thereto at a final concentration of 1% by volume. The enzyme solution adjusted to 2 μg/mL with an assay buffer (200 mM Tris/2 mM MgCl2/0.04 mM ZnCl2/0.01% Tween 20) was added in the same amount of the substrate solution and incubated at room temperature for 60 minutes. Then, the absorbance (ABS: 405 nm) was measured using a microplate reader (model plus 384, Molecular Devices, LLC), and the concentration of produced p-nitrophenol was calculated.

Sequence of human TNAP (P05186 18-502): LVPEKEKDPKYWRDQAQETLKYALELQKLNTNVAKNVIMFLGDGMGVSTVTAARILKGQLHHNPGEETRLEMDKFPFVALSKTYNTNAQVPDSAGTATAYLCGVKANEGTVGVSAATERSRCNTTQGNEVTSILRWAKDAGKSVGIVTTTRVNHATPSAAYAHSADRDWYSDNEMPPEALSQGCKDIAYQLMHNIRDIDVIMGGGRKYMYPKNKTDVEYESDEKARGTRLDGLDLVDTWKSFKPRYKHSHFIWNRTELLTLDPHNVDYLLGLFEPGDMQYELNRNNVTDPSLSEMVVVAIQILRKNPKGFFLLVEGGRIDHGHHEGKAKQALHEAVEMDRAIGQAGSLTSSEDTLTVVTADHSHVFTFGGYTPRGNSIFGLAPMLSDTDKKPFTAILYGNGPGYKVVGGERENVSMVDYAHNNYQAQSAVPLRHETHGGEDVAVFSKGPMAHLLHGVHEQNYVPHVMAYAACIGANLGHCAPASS

| Compound | IC50 [nM] |
| --- | --- |
| COc1ccc(Cl)cc1S(=O)(=O)Nc1cnc2c(c1)C(=O)N[C@@H](CO)CO2 [Example 27, 5-Chloro-N-[(3S)-3-(hydroxymethyl)-5-oxo-2,3,4,5-tetrahydropyrido[3,2-f][1,4]oxazepin-7-yl]-2-methoxybenzenesulfonamide] | 1.5 |
| COc1ccc(F)cc1S(=O)(=O)Nc1cnc2c(c1)C(=O)N[C@@H](CO)CO2 [Example 28, 5-Fluoro-N-[(3S)-3-(hydroxymethyl)-5-oxo-2,3,4,5-tetrahydropyrido[3,2-f][1,4]oxazepin-7-yl]-2-methoxybenzenesulfonamide] | 3.6 |
| COc1ccc(Br)cc1S(=O)(=O)Nc1cnc2c(c1)C(=O)N[C@@H](CO)CO2 [Example 29, 5-Bromo-N-[(3S)-3-(hydroxymethyl)-5-oxo-2,3,4,5-tetrahydropyrido[3,2-f][1,4]oxazepin-7-yl]-2-methoxybenzenesulfonamide] | 1.2 |
| COc1ccc(OC)c(S(=O)(=O)Nc2cnc3c(c2)C(=O)N[C@@H](CO)CO3)c1 [Example 30, N-[(3S)-3-(Hydroxymethyl)-5-oxo-2,3,4,5-tetrahydropyrido[3,2-f][1,4]oxazepin-7-yl]-2,5-dimethoxybenzenesulfonamide] | 3.8 |
| O=C1N[C@@H](CO)COc2ncc(NS(=O)(=O)c3cc(Cl)ccc3OC(F)(F)F)cc21 [Example 31, 5-Chloro-N-[(3S)-3-(hydroxymethyl)-5-oxo-2,3,4,5-tetrahydropyrido[3,2-f][1,4]oxazepin-7-yl]-2-(trifluoromethoxy)benzenesulfonamide] | 1.6 |
| O=C1N[C@@H](CO)COc2ncc(NS(=O)(=O)c3cc(F)ccc3OC(F)(F)F)cc21 [Example 32, 5-Fluoro-N-[(3S)-3-(hydroxymethyl)-5-oxo-2,3,4,5-tetrahydropyrido[3,2-f][1,4]oxazepin-7-yl]-2-(trifluoromethoxy)benzenesulfonamide] | 4.1 |
| COc1ccc(Cl)cc1S(=O)(=O)Nc1cnc2c(c1)C(=O)N[C@@H](CCO)CO2 [Example 33, 5-Chloro-N-[(3S)-3-(2-hydroxyethyl)-5-oxo-2,3,4,5-tetrahydropyrido[3,2-f][1,4]oxazepin-7-yl]-2-methoxybenzenesulfonamide] | 1.9 |
| COc1ccc(Cl)cc1S(=O)(=O)Nc1cnc2c(c1)C(=O)N[C@@H](CC(=O)N(C)C)CO2 [Example 34, 2-[(3S)-7-{[(5-Chloro-2-methoxyphenyl)sulfonyl]amino}-5-oxo-2,3,4,5-tetrahydropyrido[3,2-f][1,4]oxazepin-3-yl]-N,N-dimethylacetamide] | 6.7 |
| COc1ccc(Cl)cc1S(=O)(=O)Nc1cnc2c(c1)C(=O)NC1(CC1)CO2 [Example 35, 5-Chloro-2-methoxy-N-(5′-oxo-4′,5′-dihydrospiro[cyclopropane-1,3′-pyrido[3,2-f][1,4]oxazepin]-7′-yl)benzenesulfonamide] | 1.1 |
| COc1ccc(F)cc1S(=O)(=O)Nc1cnc2c(c1)C(=O)NC1(CC1)CO2 [Example 36, 5-Fluoro-2-methoxy-N-(5′-oxo-4′,5′-dihydrospiro[cyclopropane-1,3′-pyrido[3,2-f][1,4]oxazepin]-7′-yl)benzenesulfonamide] | 2.2 |
| COc1ccc(Cl)cc1S(=O)(=O)Nc1cnc2c(c1)C(=O)N(c1ccccc1)CCO2 [Example 37, 5-Chloro-2-methoxy-N-(5-oxo-4-phenyl-2,3,4,5-tetrahydropyrido[3,2-f][1,4]oxazepin-7-yl)benzenesulfonamide] | 43.4 |
| COc1ccc(Cl)cc1S(=O)(=O)Nc1cnc2c(c1)C(=O)N(c1ccccn1)CCO2 [Example 38, 5-Chloro-2-methoxy-N-[5-oxo-4-(pyridin-2-yl)-2,3,4,5-tetrahydropyrido[3,2-f][1,4]oxazepin-7-yl]benzenesulfonamide] | 24.4 |
| COc1ccc(Cl)cc1S(=O)(=O)Nc1cnc2c(c1)C(=O)N(c1cccnc1)CCO2 [Example 39, 5-Chloro-2-methoxy-N-[5-oxo-4-(pyridin-3-yl)-2,3,4,5-tetrahydropyrido[3,2-f][1,4]oxazepin-7-yl]benzenesulfonamide] | 13.2 |
| O=C1NC2(CC2)COc2ncc(NS(=O)(=O)c3cc(Cl)ccc3OC(F)(F)F)cc21 [Example 40, 5-Chloro-N-(5′-oxo-4′,5′-dihydrospiro[cyclopropane-1,3′-pyrido[3,2-f][1,4]oxazepin]-7′-yl)-2-(trifluoromethoxy)benzenesulfonamide] | 1.9 |
| O=C1NC2(CC2)COc2ncc(NS(=O)(=O)c3cc(F)ccc3OC(F)(F)F)cc21 [Example 41, 5-Fluoro-N-(5′-oxo-4′,5′-dihydrospiro[cyclopropane-1,3′-pyrido[3,2-f][1,4]oxazepin]-7′-yl)-2-(trifluoromethoxy)benzenesulfonamide] | 2.7 |
| CCOc1ccc(F)cc1S(=O)(=O)Nc1cnc2c(c1)C(=O)NC1(CC1)CO2 [Example 42, 2-Ethoxy-5-fluoro-N-(5′-oxo-4′,5′-dihydrospiro[cyclopropane-1,3′-pyrido[3,2-f][1,4]oxazepin]-7′-yl)benzenesulfonamide] | 0.6 |
| COc1ccc(OC)c(S(=O)(=O)Nc2cnc3c(c2)C(=O)NC2(CC2)CO3)c1 [Example 43, 2,5-Dimethoxy-N-(5′-oxo-4′,5′-dihydrospiro[cyclopropane-1,3′-pyrido[3,2-f][1,4]oxazepin]-7′-yl)benzenesulfonamide] | 1 |
| COc1ccc(Cl)cc1S(=O)(=O)Nc1cnc2c(c1)C(=O)NC(c1cccnc1)CO2 (stereo not shown) [Example 44, 5-Chloro-2-methoxy-N-[5-oxo-3-(pyridin-3-yl)-2,3,4,5-tetrahydropyrido[3,2-f][1,4]oxazepin-7-yl]benzenesulfonamide] | 1.4 |
| COc1ccc(Cl)cc1S(=O)(=O)Nc1cnc2c(c1)C(=O)NC(C(=O)N(C)C)CO2 (stereo not shown) [Example 45, 7-{[(5-Chloro-2-methoxyphenyl)sulfonyl]amino}-N,N-dimethyl-5-oxo-2,3,4,5-tetrahydropyrido[3,2-f][1,4]oxazepine-3-carboxamide] | 14.6 |
| COc1ccc(Cl)cc1S(=O)(=O)Nc1cnc2c(c1)C(=O)NC(C(=O)N1CCOCC1)CO2 (stereo not shown) [Example 46, 5-chloro-2-methoxy-N-[3-(morpholin-4-ylcarbonyl)-5-oxo-2,3,4,5-tetrahydropyrido[3,2-f][1,4]oxazepin-7-yl]benzenesulfonamide] | 25.2 |

These compounds were tested on plasma ALP (80-90% containing TNAP) (assay: Inhibitory test of plasma TNAP activity in B6 mouse). Conditions: administered orally, average inhibition from 0 hour to 6 hours after administration.
Type: in vivo
Experimental: After blood sampling from the tail vein using a heparin-treated hematocrit capillary tube (EM Meister Hematocrit Capillary Tube, AS ONE Corp.) (as the sample before compound administration), each test compound suspended in a 0.5% methylcellulose solution (powder purchased from Wako Pure Chemical Industries, Ltd. was adjusted to 0.5% with Otsuka distilled water) was administered orally to the mouse. 1, 2, 4, 6, and 24 hours after the administration, blood was collected from the tail vein using a heparin-treated hematocrit capillary tube to obtain a plasma sample. The plasma sample was added to an assay buffer (1 M Tris, 1 M MgCl2, 20 mM ZnCl2, and water, pH 7.5), and the mixture was left standing for 5 minutes. Then, the absorbance at 405 nm was measured and used as a blank. The substrate pNPP was added to the plasma sample and incubated at room temperature for 180 minutes. Then, the absorbance (ABS: 405 nm) was measured using a microplate reader (model plus 384, Molecular Devices, LLC), and the concentration of produced p-nitrophenol was calculated. The blank was subtracted from all measurement values to calculate TNAP activity at each time point with the TNAP activity of the sample before compound administration defined as 100%. The pharmaceutical effect of the test compound was evaluated by the average inhibition of plasma ALP (80-90% containing TNAP) activity for 6 hours from 0 hour to 6 hours after the administration of the test compound. It was calculated according to the following expression: 100−((plasma ALP activity at 0 hr+plasma ALP activity at 1 hr)*1/2+(plasma ALP activity at 1 hr+plasma ALP activity at 2 hr)*1/2+(plasma ALP activity at 2 hr+plasma ALP activity at 4 hr)*2/2+(plasma ALP activity at 4 hr+plasma ALP activity at 6 hr)*2/2)/6.

| Compound | Plasma ALP inhibition (6 h ave. inhibition %) [%] |
| --- | --- |
| COc1ccc(Cl)cc1S(=O)(=O)[N-]c1cnc2c(c1)C(=O)NCCO2.[K+] [Example 47, Potassium [(5-chloro-2-methoxyphenyl)sulfonyl](5-oxo-2,3,4,5-tetrahydropyrido[3,2-f][1,4]oxazepin-7-yl)azanide] | 54.7 |
| COc1ccc(F)cc1S(=O)(=O)[N-]c1cnc2c(c1)C(=O)NCCO2.[K+] [Example 48, Potassium [(5-fluoro-2-methoxyphenyl)sulfonyl](5-oxo-2,3,4,5-tetrahydropyrido[3,2-f][1,4]oxazepin-7-yl)azanide] | 61.6 |
| O=C1NCCOc2ncc([N-]S(=O)(=O)c3cc(Cl)ccc3OC(F)(F)F)cc21.[K+] [Example 50, Potassium {[5-chloro-2-(trifluoromethoxy)phenyl]sulfonyl}(5-oxo-2,3,4,5-tetrahydropyrido[3,2-f][1,4]oxazepin-7-yl)azanide] | 56.0 |
| COc1ccc(Cl)cc1S(=O)(=O)[N-]c1cnc2c(c1)C(=O)N[C@@H](CO)CO2.[K+] [Example 51, Potassium [(5-chloro-2-methoxyphenyl)sulfonyl][(3S)-3-(hydroxymethyl)-5-oxo-2,3,4,5-tetrahydropyrido[3,2-f][1,4]oxazepin-7-yl]azanide] | 63.7 |
| COc1ccc(F)cc1S(=O)(=O)[N-]c1cnc2c(c1)C(=O)N[C@@H](CO)CO2.[K+] [Example 52, Potassium [(5-fluoro-2-methoxyphenyl)sulfonyl][(3S)-3-(hydroxymethyl)-5-oxo-2,3,4,5-tetrahydropyrido[3,2-f][1,4]oxazepin-7-yl]azanide] | 61.3 |
